# Assay: Moisture uptake by dynamic vapor sorption (DVS)
# Format: physicochemical
substance,measurement,setting,value
mPEG7-O-naloxol phosphate salt,Hysteresis between adsorption and desorption (DVS),desorption,no hysteresis
same,"Moisture uptake, DVS isotherm curve",whole isotherm,continuous (exponential) moisture uptake from the start

# From patent publication US9149539B1, “Crystalline naloxol-PEG conjugate” (priority 2010, dated 2015)
